Key:
Experiment in all cases: apparent dissociation constant (pKDapp, Kinobeads competition, Cheng-Prusoff corrected) (-log10 M); higher = tighter binding
Conditions in all cases: affinity matrix / lysate: Kinobeads, mixed HEK293/K-562/placenta lysate
AAK1 = AAK1 (UniProt Q2M2I8)
ADCK1 = ADCK1 (UniProt Q86TW2)
AURKA = AURKA (UniProt O14965)
BMPR1B = BMPR1B (UniProt O00238)
CAMK2G = CAMK2G (UniProt Q13555)
CHEK1 = CHEK1 (UniProt O14757)
CSF1R = CSF1R (UniProt P07333)
DDR1 = DDR1 (UniProt Q08345)
EPHA4 = EPHA4 (UniProt P54764)
Chain of EPHA4 (P54764 whole entry): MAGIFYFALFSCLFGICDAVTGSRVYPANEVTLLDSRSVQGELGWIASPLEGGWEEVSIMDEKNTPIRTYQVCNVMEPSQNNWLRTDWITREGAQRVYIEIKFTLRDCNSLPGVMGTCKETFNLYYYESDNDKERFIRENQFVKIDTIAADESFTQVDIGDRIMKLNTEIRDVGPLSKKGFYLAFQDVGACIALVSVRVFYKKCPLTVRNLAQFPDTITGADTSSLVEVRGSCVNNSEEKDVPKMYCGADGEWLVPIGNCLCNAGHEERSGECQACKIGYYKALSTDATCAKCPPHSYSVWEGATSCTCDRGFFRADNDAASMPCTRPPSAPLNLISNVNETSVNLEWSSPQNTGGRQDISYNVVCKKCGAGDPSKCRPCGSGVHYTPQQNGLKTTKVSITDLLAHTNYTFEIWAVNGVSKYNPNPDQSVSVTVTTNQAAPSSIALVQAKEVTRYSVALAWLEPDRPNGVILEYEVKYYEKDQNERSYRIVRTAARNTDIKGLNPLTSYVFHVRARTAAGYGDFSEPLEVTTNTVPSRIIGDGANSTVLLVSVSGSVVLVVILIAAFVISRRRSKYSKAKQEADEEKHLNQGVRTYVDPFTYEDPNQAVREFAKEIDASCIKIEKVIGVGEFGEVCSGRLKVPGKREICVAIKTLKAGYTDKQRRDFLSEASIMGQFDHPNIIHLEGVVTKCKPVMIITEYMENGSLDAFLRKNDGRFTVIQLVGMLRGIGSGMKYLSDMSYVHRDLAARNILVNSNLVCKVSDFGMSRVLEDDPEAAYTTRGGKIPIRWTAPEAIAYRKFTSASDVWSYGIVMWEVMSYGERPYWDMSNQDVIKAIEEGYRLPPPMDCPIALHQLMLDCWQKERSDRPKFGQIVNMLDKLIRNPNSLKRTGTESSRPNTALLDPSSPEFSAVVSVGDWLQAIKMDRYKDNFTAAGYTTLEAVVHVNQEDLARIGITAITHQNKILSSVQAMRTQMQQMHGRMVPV

EPHA6 = EPHA6 (UniProt Q9UF33)
EPHB6 = EPHB6 (UniProt O15197)
FGFR1 = FGFR1 (UniProt P11362)
FGR = FGR (UniProt P09769)
FYN = FYN (UniProt P06241)
HCK = HCK (UniProt P08631)
INSR = INSR (UniProt P06213)
LATS2 = LATS2 (UniProt Q9NRM7)
MAP2K4 = MAP2K4 (UniProt P45985)
MAP3K3 = MAP3K3 (UniProt Q99759)
MAP4K2 = MAP4K2 (UniProt Q12851)
MAP4K4 = MAP4K4 (UniProt O95819)
MAPK3 = MAPK3 (UniProt P27361)
MARK3 = MARK3 (UniProt P27448)
MYLK = MYLK (UniProt Q15746)
NUAK1 = NUAK1 (UniProt O60285)
Chain of NUAK1 (O60285 whole entry): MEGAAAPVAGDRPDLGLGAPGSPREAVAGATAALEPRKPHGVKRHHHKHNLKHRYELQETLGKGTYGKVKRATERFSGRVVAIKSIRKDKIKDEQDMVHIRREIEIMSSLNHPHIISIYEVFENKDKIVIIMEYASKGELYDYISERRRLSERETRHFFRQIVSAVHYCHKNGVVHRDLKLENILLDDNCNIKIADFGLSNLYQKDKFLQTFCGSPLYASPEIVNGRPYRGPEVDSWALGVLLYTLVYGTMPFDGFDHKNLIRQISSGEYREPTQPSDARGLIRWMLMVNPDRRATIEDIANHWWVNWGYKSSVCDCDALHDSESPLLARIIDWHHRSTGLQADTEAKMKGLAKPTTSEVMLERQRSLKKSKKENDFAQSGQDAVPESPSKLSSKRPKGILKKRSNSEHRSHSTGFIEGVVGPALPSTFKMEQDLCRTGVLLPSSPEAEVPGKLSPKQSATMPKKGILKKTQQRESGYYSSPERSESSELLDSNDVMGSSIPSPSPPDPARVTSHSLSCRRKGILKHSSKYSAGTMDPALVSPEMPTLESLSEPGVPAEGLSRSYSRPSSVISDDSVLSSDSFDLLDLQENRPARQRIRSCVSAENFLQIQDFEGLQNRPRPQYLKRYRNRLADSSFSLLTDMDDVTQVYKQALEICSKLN

PDPK1 = PDPK1 (UniProt O15530)
Chain of PDPK1 (O15530 whole entry): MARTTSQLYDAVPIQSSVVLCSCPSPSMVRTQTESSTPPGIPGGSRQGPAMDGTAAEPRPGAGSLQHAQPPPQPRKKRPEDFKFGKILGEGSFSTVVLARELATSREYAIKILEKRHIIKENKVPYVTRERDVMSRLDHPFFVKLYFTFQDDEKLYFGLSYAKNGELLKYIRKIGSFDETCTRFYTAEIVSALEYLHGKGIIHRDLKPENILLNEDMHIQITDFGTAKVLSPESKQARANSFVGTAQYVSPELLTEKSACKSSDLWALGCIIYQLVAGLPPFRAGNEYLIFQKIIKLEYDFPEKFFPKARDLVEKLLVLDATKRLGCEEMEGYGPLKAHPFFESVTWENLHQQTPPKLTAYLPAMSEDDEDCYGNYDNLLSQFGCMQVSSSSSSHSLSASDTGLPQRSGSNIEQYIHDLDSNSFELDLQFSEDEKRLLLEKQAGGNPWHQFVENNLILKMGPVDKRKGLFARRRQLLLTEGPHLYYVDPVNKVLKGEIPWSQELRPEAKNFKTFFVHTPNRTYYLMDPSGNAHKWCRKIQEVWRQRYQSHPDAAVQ

PIM2 = PIM2 (UniProt Q9P1W9)
Chain of PIM2 (Q9P1W9 whole entry, looked up): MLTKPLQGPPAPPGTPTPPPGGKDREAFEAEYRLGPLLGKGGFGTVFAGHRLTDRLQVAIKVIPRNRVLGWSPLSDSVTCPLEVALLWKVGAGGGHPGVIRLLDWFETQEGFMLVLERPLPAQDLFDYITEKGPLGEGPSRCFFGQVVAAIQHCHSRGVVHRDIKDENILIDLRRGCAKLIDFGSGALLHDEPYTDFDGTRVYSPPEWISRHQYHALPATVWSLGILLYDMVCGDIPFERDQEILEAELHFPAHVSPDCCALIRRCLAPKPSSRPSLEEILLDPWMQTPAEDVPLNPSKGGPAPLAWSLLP

PKN3 = PKN3 (UniProt Q6P5Z2)
PRKAA2 = PRKAA2 (UniProt P54646)
SIK2 = SIK2 (UniProt Q9H0K1)
Chain of SIK2 (Q9H0K1 whole entry, looked up): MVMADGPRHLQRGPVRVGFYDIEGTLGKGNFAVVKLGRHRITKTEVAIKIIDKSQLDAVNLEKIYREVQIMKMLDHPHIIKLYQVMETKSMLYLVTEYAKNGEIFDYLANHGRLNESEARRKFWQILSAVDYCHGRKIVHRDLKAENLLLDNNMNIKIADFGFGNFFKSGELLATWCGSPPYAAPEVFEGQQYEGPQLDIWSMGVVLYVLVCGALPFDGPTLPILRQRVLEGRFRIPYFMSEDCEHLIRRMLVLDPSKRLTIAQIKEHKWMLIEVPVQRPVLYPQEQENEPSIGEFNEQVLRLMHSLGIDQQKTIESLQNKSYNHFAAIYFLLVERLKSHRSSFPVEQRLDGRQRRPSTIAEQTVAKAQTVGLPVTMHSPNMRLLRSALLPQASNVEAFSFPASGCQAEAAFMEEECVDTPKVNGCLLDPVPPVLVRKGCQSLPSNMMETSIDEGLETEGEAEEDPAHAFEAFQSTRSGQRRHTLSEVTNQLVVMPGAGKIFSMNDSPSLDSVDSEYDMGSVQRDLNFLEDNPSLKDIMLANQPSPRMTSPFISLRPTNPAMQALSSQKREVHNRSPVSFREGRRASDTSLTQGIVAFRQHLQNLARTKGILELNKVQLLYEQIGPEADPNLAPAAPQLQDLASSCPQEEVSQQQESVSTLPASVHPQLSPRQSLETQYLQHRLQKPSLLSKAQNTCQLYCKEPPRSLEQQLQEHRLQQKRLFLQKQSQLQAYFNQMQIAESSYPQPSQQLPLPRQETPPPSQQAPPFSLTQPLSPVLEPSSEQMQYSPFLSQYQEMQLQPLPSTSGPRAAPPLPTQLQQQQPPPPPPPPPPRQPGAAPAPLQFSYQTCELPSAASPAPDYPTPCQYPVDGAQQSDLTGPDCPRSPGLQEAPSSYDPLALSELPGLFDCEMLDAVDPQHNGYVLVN

STK3 = STK3 (UniProt Q13188)
STRADA = STRADA (UniProt Q7RTN6)
TEC = TEC (UniProt P42680)
TGFBR1 = TGFBR1 (UniProt P36897)
Chain of TGFBR1 (P36897 whole entry): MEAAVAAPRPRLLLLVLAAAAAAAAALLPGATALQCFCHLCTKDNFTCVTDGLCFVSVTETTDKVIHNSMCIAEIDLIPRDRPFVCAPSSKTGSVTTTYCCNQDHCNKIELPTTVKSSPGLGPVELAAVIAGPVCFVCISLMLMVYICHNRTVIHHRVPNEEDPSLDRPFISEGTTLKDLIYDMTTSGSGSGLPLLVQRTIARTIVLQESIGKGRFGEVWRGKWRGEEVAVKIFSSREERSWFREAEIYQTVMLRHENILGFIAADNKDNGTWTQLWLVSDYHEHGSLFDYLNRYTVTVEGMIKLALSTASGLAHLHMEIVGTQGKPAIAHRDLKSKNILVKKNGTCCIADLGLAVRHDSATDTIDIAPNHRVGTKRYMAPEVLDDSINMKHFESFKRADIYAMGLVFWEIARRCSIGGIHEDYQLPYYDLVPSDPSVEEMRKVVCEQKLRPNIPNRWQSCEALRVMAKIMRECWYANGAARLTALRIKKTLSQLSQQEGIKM

Chain of ADCK1 (Q86TW2 whole entry): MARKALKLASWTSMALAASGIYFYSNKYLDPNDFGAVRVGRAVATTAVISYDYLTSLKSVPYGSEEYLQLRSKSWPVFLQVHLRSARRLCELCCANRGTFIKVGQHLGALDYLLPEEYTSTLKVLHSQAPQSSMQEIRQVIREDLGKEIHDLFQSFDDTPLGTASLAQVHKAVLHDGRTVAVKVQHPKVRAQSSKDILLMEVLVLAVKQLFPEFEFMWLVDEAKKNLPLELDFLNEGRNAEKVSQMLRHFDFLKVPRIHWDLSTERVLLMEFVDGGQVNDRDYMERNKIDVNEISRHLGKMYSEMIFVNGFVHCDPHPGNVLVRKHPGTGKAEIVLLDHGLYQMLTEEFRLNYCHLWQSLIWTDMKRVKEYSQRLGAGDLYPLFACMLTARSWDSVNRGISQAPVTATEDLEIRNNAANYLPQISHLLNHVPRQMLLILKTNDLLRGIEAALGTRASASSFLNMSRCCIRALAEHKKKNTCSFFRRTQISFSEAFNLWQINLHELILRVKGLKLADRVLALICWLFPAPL
Chain of CHEK1 (O14757 whole entry): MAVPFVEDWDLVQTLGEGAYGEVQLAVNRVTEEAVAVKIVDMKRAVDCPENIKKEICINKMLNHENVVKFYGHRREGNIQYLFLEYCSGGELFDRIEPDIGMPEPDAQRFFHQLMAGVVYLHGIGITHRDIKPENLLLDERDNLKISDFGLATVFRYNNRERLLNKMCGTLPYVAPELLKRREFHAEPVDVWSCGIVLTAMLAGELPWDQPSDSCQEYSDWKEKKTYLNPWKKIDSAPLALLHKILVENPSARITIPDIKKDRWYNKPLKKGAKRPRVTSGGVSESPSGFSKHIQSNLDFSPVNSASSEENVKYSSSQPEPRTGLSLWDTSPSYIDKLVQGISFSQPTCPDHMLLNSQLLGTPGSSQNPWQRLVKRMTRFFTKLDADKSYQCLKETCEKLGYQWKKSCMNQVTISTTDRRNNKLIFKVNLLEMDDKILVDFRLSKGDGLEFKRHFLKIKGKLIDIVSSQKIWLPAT

apparent dissociation constant (-log10 M) (AAK1) | apparent dissociation constant (-log10 M) (ADCK1) | apparent dissociation constant (-log10 M) (AURKA) | apparent dissociation constant (-log10 M) (BMPR1B) | apparent dissociation constant (-log10 M) (CAMK2G) | apparent dissociation constant (-log10 M) (CHEK1) | apparent dissociation constant (-log10 M) (CSF1R) | apparent dissociation constant (-log10 M) (DDR1) | apparent dissociation constant (-log10 M) (EPHA4) | apparent dissociation constant (-log10 M) (EPHA6) | apparent dissociation constant (-log10 M) (EPHB6) | apparent dissociation constant (-log10 M) (FGFR1) | apparent dissociation constant (-log10 M) (FGR) | apparent dissociation constant (-log10 M) (FYN) | apparent dissociation constant (-log10 M) (HCK) | apparent dissociation constant (-log10 M) (INSR) | apparent dissociation constant (-log10 M) (LATS2) | apparent dissociation constant (-log10 M) (MAP2K4) | apparent dissociation constant (-log10 M) (MAP3K3) | apparent dissociation constant (-log10 M) (MAP4K2) | apparent dissociation constant (-log10 M) (MAP4K4) | apparent dissociation constant (-log10 M) (MAPK3) | apparent dissociation constant (-log10 M) (MARK3) | apparent dissociation constant (-log10 M) (MYLK) | apparent dissociation constant (-log10 M) (NUAK1) | apparent dissociation constant (-log10 M) (PDPK1) | apparent dissociation constant (-log10 M) (PIM2) | apparent dissociation constant (-log10 M) (PKN3) | apparent dissociation constant (-log10 M) (PRKAA2) | apparent dissociation constant (-log10 M) (SIK2) | apparent dissociation constant (-log10 M) (STK3) | apparent dissociation constant (-log10 M) (STRADA) | apparent dissociation constant (-log10 M) (TEC) | apparent dissociation constant (-log10 M) (TGFBR1) | Structure (SMILES)
< 6 | < 6 | < 6 | < 6 | < 6 | < 6 | < 6 | < 6 | < 6 | < 6 | < 6 | < 6 | < 6 | < 6 | < 6 | < 6 | < 6 | < 6 | < 6 | < 6 | < 6 | < 6 | < 6 | < 6 | < 6 | < 6 | < 6 | < 6 | < 6 | < 6 | < 6 | < 6 | < 6 | < 6 | CCNC(=O)Nc1ccc(-c2nc(N3CCOC[C@@H]3C)c3c(n2)C(C)(C)S(=O)(=O)C3)cc1 [CZ415]
< 6 | < 6 | < 6 | < 6 | < 6 | < 6 | < 6 | < 6 | < 6 | < 6 | < 6 | < 6 | < 6 | < 6 | < 6 | < 6 | < 6 | < 6 | < 6 | < 6 | < 6 | < 6 | < 6 | < 6 | < 6 | < 6 | < 6 | < 6 | < 6 | < 6 | < 6 | < 6 | < 6 | < 6 | COc1ccc(-c2ccc3c(N4CCOC[C@@H]4C)nc(N4CCOC[C@@H]4C)nc3n2)cc1CO [AZD8055]

Source: the supplement of paper PMC6315032
